Measured values published in patent US20210379020A1, “COMPOUNDS FOR THE TREATMENT OF MALARIA” (Merck Sharp & Dohme Corp., priority 2016, published 2021).

The compounds below were run on asexual P. falciparum 3D7 parasites (assay: P. falciparum growth inhibition assay with LDH activity readout (Assay 1)). Settings: 3D7 strain, 72 h incubation, LDH activity read by absorbance at 650 nm.
Format: cell-based, Plasmodium falciparum
Procedure: A modified version of the assay described in Gamo, F. J., Sanz, L. M., Vidal, J., de Cozar, C., Alvarez, E., Lavandera, J. L., Vanderwall, D. E., Green, D. V., Kumar, V., Hasan, S., Brown, J. R., Peishoff, C. E., Cardon, L. R., Garcia-Bustos, J. F., Nature, 465 (2010) 305-310 (Gamo et al.) was used to assess the activity of compounds against asexual P. falciparum 3D7 parasites. Compounds were pre-dispensed in 384-well plates, RPMI/AlbuMAX growth media was added and P. falciparum inoculated. Plates were incubated for 72 h and then frozen at −80° C. overnight. LDH activity was quantified with the modified cofactor 3-acetylpyridine adenine dinucleotide (APAD) (Sigma Aldrich) by measuring absorbance of the tetrazolium indicator nitro blue tetrazolium (NBT) (Sigma Aldrich) at 650 nm.
An inoculum of synchronous P. falciparum (3D7 strain) parasitized red blood cells (PRBC) at 0.7% parasitaemia and 2% haematocrit in RPMI-1640, 5% AlbuMAX, 2% D-sucrose, 0.3% glutamine and 150 μM hypoxanthine was used for the assay.
Compound master plates (384-well) were prepared by a 10 pt serial dilution of compounds, from 1 mM to 50.8 nM, in columns 3-12 and 13-22. DMSO was dispensed into columns 1 and 23 of the compound master plate to be used as the positive growth control (100% viability). […] Intermediate compound dilution plates were prepared by dispensing 1 μl from each well of the compound master plate into 11.5 μl of RPMI/AlbuMAX growth media. Duplicate assay plates (384-well) were then prepared by dispensing 0.5 μL of compound from the intermediate dilution plates into 9.5 μl of RPMI/AlbuMAX growth media. The parasite inoculum (30 μL) was dispensed into the assay plates containing compounds using a Multidrop dispenser (Thermo Scientific) such that the final assay volume was 40 μL and final compound concentration was 1 μM-0.05 nM (the volume of compound addition can be adjusted to the preferred and agreed screening concentration). The final DMSO concentration was 0.1% (ideally 0.2% to limit toxicity to parasites), but this is dependent on volume of compound DMSO stock solution that can be supplied. Plates were incubated at 37° C. for 72 h in an atmosphere of 5% CO2, 5% O2, […].
After 72 h of incubation, plates were frozen at −80° C. overnight and then thawed at room temperature for at least 4 h. To evaluate LDH activity, 45 μL of freshly made reaction mix (174 mM sodium L-lactate (Sigma Aldrich), 214 μM 3-acetyl pyridine adenine dinucleotide (APAD) (Sigma Aldrich), 270 μM nitro blue tetrazolium chloride (NBT) (Sigma Aldrich), 4.35 U/mL diaphorase (from Clostridium kluyveri) (Sigma Aldrich), 0.7% Tween 20, 100 mM Tris-HCl pH 7.5) was dispensed using a Multidrop dispenser (Thermo Scientific). Plates were shaken to ensure mixing and absorbance at 650 nm was monitored using a Perkin Elmer Envision plate reader after 30 min of incubation at room temperature. Data were normalized to percent growth inhibition using positive and negative controls, and analysed using TIBCO Spotfire software.
P. falciparum 3D7 strain was grown as described in Assay 1, at 37° C. for 72 hours. The culture was frozen at −80° C. overnight. Cultures were thawed at room temperature for at least 4 hours and the reaction mixture described in Assay 1 was made in order to measure the possible direct inhibition of LDH by the following compounds, assayed as above in Assay 1.

Row | Compound | IC50 [nM]
1 | CC(=O)N1CCN(C(=O)c2cc(F)cc(CN3C(=N)NC(c4ccccc4)(c4ccccc4)C3=O)c2)CC1 [Compound 1] | 4.5
2 | N=C1NC(C[C@@H]2CCCO2)(c2ccccc2)C(=O)N1Cc1ccc(C(F)(F)F)c(C(=O)N2Cc3nccnc3C2)c1 (some centres unmarked) [Compound 2] | 5.8
3 | CC(C)CC[C@]1(c2ccccc2)NC(=N)N(Cc2ccc(C(F)(F)F)c(C(=O)N3CC(O)C(F)C3)c2)C1=O (some centres unmarked) [Compound 3] | 9.6
4 | N=C1NC(c2ccc(F)cc2)(C2CCCCC2)C(=O)N1Cc1ccc(C(F)(F)F)c(C(=O)N2Cc3nccnc3C2)c1 (centres unmarked) [Compound 4] | 9.7
5 | CC(C)CC[C@]1(c2ccccc2)NC(=N)N(Cc2ccc(C(C)(C)C)c(C(=O)NCc3cccnc3)c2)C1=O [Compound 11] | 172
